Data published in ChEMBL document CHEMBL3297740, “Thiazolidine-2,4-diones derivatives as PPAR-γ agonists: synthesis, molecular docking, in vitro and in vivo antidiabetic activity with hepatotoxicity risk evaluation and effect on PPAR-γ gene expression” (Bioorg Med Chem Lett, 2014).
Activity calls are given as the source filed them. No cut-off for these calls is given here.

Legend:
Rattus norvegicus [1] = test: Antidiabetic activity in streptozotocin-induced Albino Wistar rat diabetic model assessed as decrease in blood glucose level at 36 mg/kg, po measured after 15 days by glucose oxidase method; format: functional, organism-based; parameters: dose 36 mg/kg
Rattus norvegicus [2] = species on record: Rattus norvegicus; test: Hepatotoxicity in streptozotocin-induced in Albino Wistar rat diabetic model assessed as fatty changes in hepatocyte by Haematoxylin/Eosin staining-based microscopy; format: toxicity, organism-based; conditions: hepatocytes
Rattus norvegicus [3] = species on record: Rattus norvegicus; test: Reduction in streptozotocin-induced aspartate aminotransferase level in Albino Wistar rat diabetic model; format: functional, organism-based
Rattus norvegicus [4] = species on record: Rattus norvegicus; test: Reduction in streptozotocin-induced alanine transaminase level in Albino Wistar rat diabetic model; format: functional, organism-based
Rattus norvegicus [5] = species on record: Rattus norvegicus; test: Reduction in streptozotocin-induced alkaline phosphatase level in Albino Wistar rat diabetic model; format: functional, organism-based
Rattus norvegicus [6] = species on record: Rattus norvegicus; test: Hepatotoxicity in streptozotocin-induced in Albino Wistar rat diabetic model assessed increase in sinusoidal dilatation by Haematoxylin/Eosin staining-based microscopy; format: toxicity, organism-based; conditions: in vivo
Rattus norvegicus [7] = species on record: Rattus norvegicus; test: Hepatotoxicity in streptozotocin-induced in Albino Wistar rat diabetic model assessed increase in portal triad Inflammation by Haematoxylin/Eosin staining-based microscopy; format: toxicity, organism-based; conditions: in vivo
Rattus norvegicus [8] = species on record: Rattus norvegicus; test: Hepatotoxicity in streptozotocin-induced in Albino Wistar rat diabetic model assessed as hepatocyte swelling by Haematoxylin/Eosin staining-based microscopy; format: toxicity, organism-based; conditions: hepatocytes
Rattus norvegicus [9] = species on record: Rattus norvegicus; test: Toxicity in streptozotocin-induced in Albino Wistar rat diabetic model assessed as liver damage by Haematoxylin/Eosin staining-based microscopy; format: organism-based; conditions: in vivo
Rattus norvegicus [10] = species on record: Rattus norvegicus; test: Antidiabetic activity in Albino Wistar rat assessed as improvement in insulin resistance measured at 90 mins after insulin injection by insulin tolerance test; format: functional, organism-based
Rattus norvegicus [11] = species on record: Rattus norvegicus; test: Antidiabetic activity in Albino Wistar rat assessed as reduction of blood glucose level measured at 120 mins after glucose injection by oral glucose tolerance test; format: functional, organism-based
Rattus norvegicus [12] = test: Antidiabetic activity in streptozotocin-induced Albino Wistar rat diabetic model assessed as improvement in body weight at 36 mg/kg, po measured after 15 days by glucose oxidase method; format: functional, organism-based; parameters: dose 36 mg/kg
Rattus norvegicus [13] = species on record: Rattus norvegicus; test: Toxicity in Albino Wistar rat assessed as change in body weight relative to control; format: organism-based; conditions: in vivo

SMILES | inhibition (Rattus norvegicus [1]) | Activity (Rattus norvegicus [2]) | Activity (Rattus norvegicus [3]) | Activity (Rattus norvegicus [4]) | Activity (Rattus norvegicus [5]) | Activity (Rattus norvegicus [6]) | Activity (Rattus norvegicus [7]) | Activity (Rattus norvegicus [8]) | Activity (Rattus norvegicus [9]) | other results
Cc1ccc2occ(CC3SC(=O)NC3=O)c(=O)c2c1 (stereo unspecified) | Active |  |  |  |  |  |  |  |  | 
O=C1NC(=O)C(Cc2coc3ccc(F)cc3c2=O)S1 (stereo unspecified) | Active | Non-toxic | Active | Active | Active | Toxic | Non-toxic | Non-toxic | Toxic | 
COc1ccc2occ(CC3SC(=O)NC3=O)c(=O)c2c1 (stereo unspecified) | Active | Non-toxic | Active | Active | Active | Non-toxic | Non-toxic | Non-toxic | Non-toxic | 
O=C1NC(=O)C(CC2COc3c(Cl)cc(Cl)cc3C2=O)S1 (stereo unspecified) | Active |  |  |  |  |  |  |  |  | 
O=C1NC(=O)C(Cc2coc3c(Cl)cc(Cl)cc3c2=O)S1 (stereo unspecified) | Active | Non-toxic | Active | Active | Active | Toxic | Non-toxic | Non-toxic | Toxic | 
O=C1NC(=O)C(CC2COc3ccc(F)cc3C2=O)S1 (stereo unspecified) | Active |  |  |  |  |  |  |  |  | 
COc1cccc2c1C(=O)C(CC1SC(=O)NC1=O)CO2 (stereo unspecified) | Active |  |  |  |  |  |  |  |  | 
O=C1NC(=O)C(Cc2coc3ccccc3c2=O)S1 (stereo unspecified) | Active |  |  |  |  |  |  |  |  | 
O=C1NC(=O)C(Cc2coc3ccc(Cl)cc3c2=O)S1 (stereo unspecified) | Active | Non-toxic | Active | Active | Active | Non-toxic | Non-toxic | Non-toxic | Non-toxic | Activity (Rattus norvegicus [10]): Active; inhibition (Rattus norvegicus [11]): Active; Activity (Rattus norvegicus [12]): Active; Activity (Rattus norvegicus [13]): Non-toxic
O=C1NC(=O)C(CC2COc3ccc(Br)cc3C2=O)S1 (stereo unspecified) | Active |  |  |  |  |  |  |  |  | 
Cc1ccc2c(c1)C(=O)C(CC1SC(=O)NC1=O)CO2 (stereo unspecified) | Active |  |  |  |  |  |  |  |  | 
O=C1NC(=O)C(Cc2coc3ccc(Br)cc3c2=O)S1 (stereo unspecified) | Active | Non-toxic | Active | Active | Active | Toxic | Non-toxic | Non-toxic | Toxic | 
CCc1ccc(CCOc2ccc(CC3SC(=O)NC3=O)cc2)nc1 (stereo unspecified) [PIOGLITAZONE] |  | Non-toxic |  |  |  | Toxic | Non-toxic | Non-toxic |  | 
COc1ccc2c(c1)C(=O)C(CC1SC(=O)NC1=O)CO2 (stereo unspecified) | Active |  |  |  |  |  |  |  |  | 
